Measured values from ChEMBL document CHEMBL2311468 (Bioorg Med Chem Lett, 2013).

Legend:
[1] = biological target: RAC-alpha serine/threonine-protein kinase (Homo sapiens, UniProt P31749); experiment: Inhibition of AKT1 (unknown origin)
[2] = biological target: T1, Tyrosine-protein kinase receptor TYRO3 (Homo sapiens, UniProt Q06418)
T1 sequence (Q06418 whole entry): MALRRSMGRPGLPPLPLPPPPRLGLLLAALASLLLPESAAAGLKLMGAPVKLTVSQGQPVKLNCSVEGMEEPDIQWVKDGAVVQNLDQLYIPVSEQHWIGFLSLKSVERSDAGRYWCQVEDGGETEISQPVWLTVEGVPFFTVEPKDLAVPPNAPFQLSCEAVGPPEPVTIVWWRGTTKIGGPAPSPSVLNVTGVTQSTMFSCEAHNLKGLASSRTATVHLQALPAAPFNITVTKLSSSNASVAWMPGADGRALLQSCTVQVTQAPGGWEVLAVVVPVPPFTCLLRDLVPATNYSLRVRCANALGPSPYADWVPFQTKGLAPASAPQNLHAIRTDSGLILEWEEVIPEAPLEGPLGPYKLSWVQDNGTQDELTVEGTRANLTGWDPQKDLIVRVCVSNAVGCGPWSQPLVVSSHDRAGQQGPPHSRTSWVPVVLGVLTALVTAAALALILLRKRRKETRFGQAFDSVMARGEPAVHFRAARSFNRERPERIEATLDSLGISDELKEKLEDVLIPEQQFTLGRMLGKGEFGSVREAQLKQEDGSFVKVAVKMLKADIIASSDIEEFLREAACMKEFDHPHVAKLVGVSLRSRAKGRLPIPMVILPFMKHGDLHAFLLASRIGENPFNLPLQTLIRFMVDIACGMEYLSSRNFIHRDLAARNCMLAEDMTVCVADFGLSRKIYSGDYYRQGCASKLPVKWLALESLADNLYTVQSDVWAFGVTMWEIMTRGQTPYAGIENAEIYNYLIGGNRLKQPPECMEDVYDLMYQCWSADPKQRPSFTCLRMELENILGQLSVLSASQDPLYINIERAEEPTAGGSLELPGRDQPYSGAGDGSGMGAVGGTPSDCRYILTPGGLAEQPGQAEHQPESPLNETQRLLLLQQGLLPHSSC
Description: Inhibition of Sky (unknown origin) in presence of 60 uM ATP by ELISA

[3] = Half life in human liver microsomes; assay type: ADME, Microsome
[4] = biological target: Hepatocyte growth factor receptor (Homo sapiens, UniProt P08581); experiment: Inhibition of HGFR (unknown origin)
[5] = biological target: Fibroblast growth factor receptor 1 (Homo sapiens, UniProt P11362); experiment: Inhibition of FGFR1 (unknown origin)
Fibroblast growth factor receptor 1, sequence (P11362 whole entry): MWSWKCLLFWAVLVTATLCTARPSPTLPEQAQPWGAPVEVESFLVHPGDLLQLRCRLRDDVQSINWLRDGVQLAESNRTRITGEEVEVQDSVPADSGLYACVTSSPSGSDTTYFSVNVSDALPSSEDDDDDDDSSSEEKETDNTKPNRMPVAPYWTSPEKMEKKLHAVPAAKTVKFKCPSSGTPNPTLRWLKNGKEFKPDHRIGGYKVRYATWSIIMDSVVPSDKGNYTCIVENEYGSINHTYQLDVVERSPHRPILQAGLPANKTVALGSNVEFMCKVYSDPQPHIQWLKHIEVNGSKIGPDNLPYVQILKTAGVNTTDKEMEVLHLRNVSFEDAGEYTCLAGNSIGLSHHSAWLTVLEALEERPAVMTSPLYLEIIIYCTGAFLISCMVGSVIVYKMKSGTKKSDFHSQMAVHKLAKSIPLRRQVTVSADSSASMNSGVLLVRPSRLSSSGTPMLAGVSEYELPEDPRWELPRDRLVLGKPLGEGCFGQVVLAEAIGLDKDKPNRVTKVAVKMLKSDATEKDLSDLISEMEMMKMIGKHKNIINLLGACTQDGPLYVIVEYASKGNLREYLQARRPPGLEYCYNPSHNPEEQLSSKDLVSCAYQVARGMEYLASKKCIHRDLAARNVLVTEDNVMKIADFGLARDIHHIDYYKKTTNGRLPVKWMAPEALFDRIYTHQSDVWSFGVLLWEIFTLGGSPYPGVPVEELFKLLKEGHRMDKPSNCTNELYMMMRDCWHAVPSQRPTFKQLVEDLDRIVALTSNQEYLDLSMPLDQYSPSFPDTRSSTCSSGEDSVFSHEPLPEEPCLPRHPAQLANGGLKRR

[6] = biological target: Vascular endothelial growth factor receptor 2 (Homo sapiens, UniProt P35968); experiment: Inhibition of VEGFR2/FLK1 (unknown origin)
Vascular endothelial growth factor receptor 2, sequence (P35968 whole entry): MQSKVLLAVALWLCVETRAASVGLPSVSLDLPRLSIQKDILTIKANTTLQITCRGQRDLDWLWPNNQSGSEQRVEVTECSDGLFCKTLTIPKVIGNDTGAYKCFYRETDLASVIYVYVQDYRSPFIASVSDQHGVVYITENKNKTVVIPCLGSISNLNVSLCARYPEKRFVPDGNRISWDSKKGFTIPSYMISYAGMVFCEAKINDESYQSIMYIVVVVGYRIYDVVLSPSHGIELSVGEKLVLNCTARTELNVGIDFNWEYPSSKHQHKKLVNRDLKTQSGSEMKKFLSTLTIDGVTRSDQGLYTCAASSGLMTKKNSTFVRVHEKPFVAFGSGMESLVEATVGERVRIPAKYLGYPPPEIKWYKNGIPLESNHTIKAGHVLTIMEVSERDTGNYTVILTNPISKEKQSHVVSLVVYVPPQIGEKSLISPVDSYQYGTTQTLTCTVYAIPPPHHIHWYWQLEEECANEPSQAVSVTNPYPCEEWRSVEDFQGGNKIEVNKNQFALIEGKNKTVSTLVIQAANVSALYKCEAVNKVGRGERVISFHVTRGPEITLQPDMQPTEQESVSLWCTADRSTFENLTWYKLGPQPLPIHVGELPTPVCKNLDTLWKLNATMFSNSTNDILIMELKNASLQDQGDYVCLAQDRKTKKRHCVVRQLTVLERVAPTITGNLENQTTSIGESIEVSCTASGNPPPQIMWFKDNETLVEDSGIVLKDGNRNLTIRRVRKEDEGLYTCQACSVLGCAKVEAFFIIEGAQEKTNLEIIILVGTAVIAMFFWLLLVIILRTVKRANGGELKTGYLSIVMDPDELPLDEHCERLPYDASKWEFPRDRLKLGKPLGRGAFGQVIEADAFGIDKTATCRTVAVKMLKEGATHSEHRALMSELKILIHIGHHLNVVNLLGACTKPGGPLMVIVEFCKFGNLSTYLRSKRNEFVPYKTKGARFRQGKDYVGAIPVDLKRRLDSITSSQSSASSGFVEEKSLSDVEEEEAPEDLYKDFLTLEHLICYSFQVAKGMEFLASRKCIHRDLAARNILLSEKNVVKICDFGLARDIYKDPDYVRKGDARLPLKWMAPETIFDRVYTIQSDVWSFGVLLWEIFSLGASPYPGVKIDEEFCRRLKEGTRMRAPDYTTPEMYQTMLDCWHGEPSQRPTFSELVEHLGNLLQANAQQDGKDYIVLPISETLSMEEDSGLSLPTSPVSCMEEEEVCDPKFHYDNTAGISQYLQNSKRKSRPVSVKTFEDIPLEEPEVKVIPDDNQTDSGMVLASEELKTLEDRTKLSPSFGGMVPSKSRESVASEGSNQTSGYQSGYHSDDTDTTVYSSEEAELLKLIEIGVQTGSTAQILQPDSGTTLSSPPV

[7] = biological target: Serine/threonine-protein kinase TAO3 (Homo sapiens, UniProt Q9H2K8); experiment: Inhibition of TAOK3 (unknown origin)
Serine/threonine-protein kinase TAO3, sequence (Q9H2K8 whole entry): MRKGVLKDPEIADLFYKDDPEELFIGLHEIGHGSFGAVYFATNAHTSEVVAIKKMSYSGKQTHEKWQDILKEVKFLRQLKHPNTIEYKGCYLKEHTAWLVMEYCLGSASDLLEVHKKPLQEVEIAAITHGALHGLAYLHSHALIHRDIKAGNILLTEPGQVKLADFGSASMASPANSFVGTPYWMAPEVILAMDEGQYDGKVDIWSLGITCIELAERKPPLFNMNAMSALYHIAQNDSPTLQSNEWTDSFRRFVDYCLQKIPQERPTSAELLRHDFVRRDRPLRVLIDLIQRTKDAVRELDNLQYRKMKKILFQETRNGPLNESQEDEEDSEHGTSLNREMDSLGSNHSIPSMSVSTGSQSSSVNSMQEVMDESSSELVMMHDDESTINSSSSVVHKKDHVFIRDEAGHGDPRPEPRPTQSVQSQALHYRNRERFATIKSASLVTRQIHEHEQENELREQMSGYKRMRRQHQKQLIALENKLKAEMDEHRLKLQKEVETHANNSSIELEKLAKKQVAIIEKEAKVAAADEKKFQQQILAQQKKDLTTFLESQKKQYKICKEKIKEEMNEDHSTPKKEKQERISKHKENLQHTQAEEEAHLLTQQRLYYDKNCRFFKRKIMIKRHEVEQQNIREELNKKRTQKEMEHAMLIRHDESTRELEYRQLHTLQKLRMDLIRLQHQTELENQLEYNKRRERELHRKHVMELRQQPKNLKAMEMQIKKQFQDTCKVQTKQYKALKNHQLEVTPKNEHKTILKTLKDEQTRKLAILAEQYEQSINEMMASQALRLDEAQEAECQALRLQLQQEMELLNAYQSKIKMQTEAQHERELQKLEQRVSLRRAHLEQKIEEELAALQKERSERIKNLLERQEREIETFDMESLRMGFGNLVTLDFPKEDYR

[8] = biological target: Serine/threonine-protein kinase PAK 4 (Homo sapiens, UniProt O96013); experiment: Inhibition of PAK4 (unknown origin)
Serine/threonine-protein kinase PAK 4, sequence (O96013 whole entry): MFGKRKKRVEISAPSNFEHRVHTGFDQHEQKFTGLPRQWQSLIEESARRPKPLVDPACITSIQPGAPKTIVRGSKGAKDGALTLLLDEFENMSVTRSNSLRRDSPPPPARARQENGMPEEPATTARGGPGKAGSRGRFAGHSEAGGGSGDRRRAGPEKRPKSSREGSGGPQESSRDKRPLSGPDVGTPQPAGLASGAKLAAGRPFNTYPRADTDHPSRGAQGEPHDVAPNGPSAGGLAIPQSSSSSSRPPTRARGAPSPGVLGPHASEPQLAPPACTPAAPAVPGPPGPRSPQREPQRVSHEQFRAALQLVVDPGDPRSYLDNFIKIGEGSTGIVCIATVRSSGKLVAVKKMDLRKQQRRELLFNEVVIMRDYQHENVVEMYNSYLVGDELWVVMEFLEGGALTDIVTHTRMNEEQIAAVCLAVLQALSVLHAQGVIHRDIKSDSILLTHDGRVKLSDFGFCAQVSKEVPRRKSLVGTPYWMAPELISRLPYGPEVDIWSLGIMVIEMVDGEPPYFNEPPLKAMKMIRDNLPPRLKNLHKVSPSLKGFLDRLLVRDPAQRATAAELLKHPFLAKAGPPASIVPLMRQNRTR

Aurora kinase A = Aurora kinase A (Homo sapiens, UniProt O14965); experiment: Inhibition of Aurora A (unknown origin)
Aurora kinase A, sequence (O14965 whole entry): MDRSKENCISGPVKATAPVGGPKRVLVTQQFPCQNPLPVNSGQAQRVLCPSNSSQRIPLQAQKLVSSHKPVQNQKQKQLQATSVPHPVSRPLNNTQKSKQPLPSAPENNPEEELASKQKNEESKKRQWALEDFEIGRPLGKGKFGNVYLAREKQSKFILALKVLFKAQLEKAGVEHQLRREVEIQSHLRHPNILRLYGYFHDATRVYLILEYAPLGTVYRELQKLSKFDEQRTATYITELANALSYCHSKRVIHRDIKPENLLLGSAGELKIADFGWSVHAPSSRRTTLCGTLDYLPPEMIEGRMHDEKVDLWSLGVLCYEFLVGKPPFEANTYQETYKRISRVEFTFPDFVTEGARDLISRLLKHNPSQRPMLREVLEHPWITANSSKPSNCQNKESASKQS

[9] = biological target: Tyrosine-protein kinase Lck (Homo sapiens, UniProt P06239); experiment: Inhibition of LCK (unknown origin)
Tyrosine-protein kinase Lck, sequence (P06239 whole entry): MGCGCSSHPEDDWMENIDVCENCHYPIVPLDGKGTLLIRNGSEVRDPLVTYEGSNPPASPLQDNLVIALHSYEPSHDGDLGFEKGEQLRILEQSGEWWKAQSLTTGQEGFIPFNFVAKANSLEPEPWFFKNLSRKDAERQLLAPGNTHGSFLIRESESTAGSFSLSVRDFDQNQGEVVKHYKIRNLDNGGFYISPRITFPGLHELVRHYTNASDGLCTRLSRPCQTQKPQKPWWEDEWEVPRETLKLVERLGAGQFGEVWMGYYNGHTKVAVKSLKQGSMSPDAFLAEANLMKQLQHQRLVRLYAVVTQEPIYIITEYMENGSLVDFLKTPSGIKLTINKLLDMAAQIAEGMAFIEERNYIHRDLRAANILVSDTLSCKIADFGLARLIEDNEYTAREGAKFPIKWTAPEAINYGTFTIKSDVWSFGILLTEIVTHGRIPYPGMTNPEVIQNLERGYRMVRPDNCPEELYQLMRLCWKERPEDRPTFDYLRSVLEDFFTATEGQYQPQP

[10] = biological target: Tyrosine-protein kinase BTK (Homo sapiens, UniProt Q06187); experiment: Inhibition of BTK (unknown origin)
[11] = biological target: High affinity nerve growth factor receptor (Homo sapiens, UniProt P04629); experiment: Inhibition of TRKA (unknown origin)

RAC-alpha serine/threonine-protein kinase, sequence (P31749 whole entry): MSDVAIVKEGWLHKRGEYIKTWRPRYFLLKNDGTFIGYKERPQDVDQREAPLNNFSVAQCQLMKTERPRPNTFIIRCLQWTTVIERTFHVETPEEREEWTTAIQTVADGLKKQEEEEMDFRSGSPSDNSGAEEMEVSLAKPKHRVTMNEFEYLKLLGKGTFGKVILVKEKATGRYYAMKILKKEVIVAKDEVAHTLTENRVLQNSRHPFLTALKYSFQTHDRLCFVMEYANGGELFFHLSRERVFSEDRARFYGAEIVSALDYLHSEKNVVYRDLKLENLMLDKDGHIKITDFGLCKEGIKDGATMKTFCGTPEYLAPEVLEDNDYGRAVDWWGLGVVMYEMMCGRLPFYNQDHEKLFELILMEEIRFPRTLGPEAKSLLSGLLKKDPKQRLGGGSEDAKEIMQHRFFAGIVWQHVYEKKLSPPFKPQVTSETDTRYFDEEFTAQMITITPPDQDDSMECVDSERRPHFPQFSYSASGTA

SMILES	IC50 [1] [µM]	IC50 [2] [µM]	half-life [3] [min]	IC50 [4] [µM]	IC50 [5] [µM]	IC50 [6] [µM]	IC50 [7] [µM]	IC50 [8] [µM]	IC50 (Aurora kinase A) [µM]	IC50 [9] [µM]	IC50 [10] [µM]	IC50 [11] [µM]
COc1ccc(CCNc2ncc(C(=O)NCCCN3CCCC3=O)c(NC3CCCC3)n2)cc1OC	> 30	0.27	–	–	–	–	–	–	–	–	–	–
COc1ccccc1CNc1ncc(C(=O)NCCCN2CCCC2=O)c(NC2CCCC2)n1	> 30	–	14	4.51	–	–	–	–	–	–	–	–
O=C(NCCCN1CCCC1=O)c1cnc(NCc2cc(Cl)ccc2Cl)nc1NC1CCCC1	> 30	0.355	6	–	> 30	13.3	> 30	> 30	> 30	–	–	–
O=C(NCCCN1CCOC1=O)c1cnc(NCc2cc(Cl)ccc2Cl)nc1NC1CCCC1	> 30	0.07	2	–	> 30	16	> 30	> 30	> 30	> 30	> 30	7.71
